Read-outs that look alike come from different tables or passages of the source. Numbered stars: 1 amine (or outer) side, 2 acyl side, 3 side chain; on linkers, the order of the positions; unused ones are H or OH. Bridge positions count the residues as written; N and C are the ends. Square brackets hold non-standard residues; d marks the D form. Peptide text beside a SMILES is read from it. * marks the point of attachment. Pro(trans-4-Ph) = O=C(O)[C@@H]1C[C@@H](c2ccccc2)CN1; C20 diacid = O=C(O)CCCCCCCCCCCCCCCCCCC(=O)*; γGlu = O=C(O)[C@H](CCC(=O)[*:2])N[*:1]; NMeI = CC[C@H](C)[C@H](NC)C(=O)O; Sar = CNCC(=O)O
Assays:
[1] = molecular target: T1, human calcitonin receptor (hCTR2) (Homo sapiens, UniProt P30988); assay: hCTR2 assay: induction of cAMP (AlphaScreen cAMP Assay kit) in COS7 cells expressing hCTR2; assay type: cell-based
T1 construct: expressed in transfected cells
T1 sequence (P30988 25-474): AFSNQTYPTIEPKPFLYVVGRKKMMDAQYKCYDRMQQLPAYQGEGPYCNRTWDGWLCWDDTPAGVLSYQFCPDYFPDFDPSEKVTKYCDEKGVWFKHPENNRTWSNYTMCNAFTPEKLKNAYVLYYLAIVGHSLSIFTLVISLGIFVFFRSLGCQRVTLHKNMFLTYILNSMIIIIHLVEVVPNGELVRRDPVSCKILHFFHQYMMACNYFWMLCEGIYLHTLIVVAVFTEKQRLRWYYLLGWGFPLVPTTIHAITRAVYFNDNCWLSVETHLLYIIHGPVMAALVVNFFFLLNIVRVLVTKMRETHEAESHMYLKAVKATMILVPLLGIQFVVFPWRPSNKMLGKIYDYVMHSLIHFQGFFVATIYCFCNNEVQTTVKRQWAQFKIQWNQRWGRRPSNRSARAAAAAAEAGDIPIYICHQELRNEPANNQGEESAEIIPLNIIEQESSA
How it was run: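 COS7 stable hCTR2 clone (RAMP-free); peptide dose-response 15 min 37° C in Tyrode pH 7.4 + 100 µM IBMX + 0.1% casein; lysis 10 min RT; AlphaScreen cAMP; 4PL fit.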

[2] = Solubility assessment (turbidity absorbance at 325 nm); assay type: physicochemical; conditions: stock 2 mg/ml diluted 1:1, ambient temperature (typically 25°C), n=1; for Solubility, Acetate buffer pH 4: 100 mM acetate buffer pH 4.0; for Solubility, Acetate buffer pH 5: 100 mM acetate buffer pH 5.0; for Solubility, Histidine buffer pH 6: 100 mM histidine buffer pH 6.0; for Solubility, Histidine buffer pH 7: 100 mM histidine buffer pH 7.0; for Solubility, Phosphate buffer pH 6: 100 mM phosphate buffer pH 6.0; for Solubility, Phosphate buffer pH 7: 100 mM phosphate buffer pH 7.0; for Solubility, Phosphate buffer pH 7.5: 100 mM phosphate buffer pH7.5
How it was run: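 Stock 2 mg/ml peptide, H2O/HCl pH 2.5; 1:1 into 100 mM buffers: acetate pH 4.0/5.0, His pH 6.0/7.0, phosphate pH 6.0/7.0/7.5. A280 + A325, ~25°C, n=1. Soluble ≥ 1 mg/ml if A325 ≤ 0.02.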

[3] = molecular target: T2, human amylin receptor 3 (hAMYR3) consisting of hCTR2 co-expressed with human Receptor Activity Modifying Protein 3 (hRAMP3) (Homo sapiens, UniProt O60896+P30988); assay: hAMYR3 assay: induction of cAMP (AlphaScreen cAMP Assay kit) in COS7 cells expressing hAMYR3; assay type: cell-based
T2 construct: expressed in transfected cells
T2 sequence (P30988 25-474): T1 sequence (P30988 25-474)
T2 sequence (O60896 24-148 partner): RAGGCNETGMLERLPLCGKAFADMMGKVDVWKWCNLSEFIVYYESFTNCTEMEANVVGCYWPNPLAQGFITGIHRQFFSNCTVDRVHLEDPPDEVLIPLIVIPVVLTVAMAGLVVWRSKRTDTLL
How it was run: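 Stable COS7 clone co-expressing hCTR2 and hRAMP3, stimulated 15 min at 37° C with increasing peptide in Tyrode buffer pH 7.4 with 100 µM IBMX and 0.1% casein. cAMP measured by AlphaScreen after lysis; EC50 and % efficacy versus pramlintide from 4PL fit.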

[4] = cAMP induction in COS7 cells expressing hCTR2, average of a minimum of 3 determinations, read-out: hCTR2 EC50
[5] = cAMP induction in COS7 cells expressing hAMYR3, average of a minimum of 3 determinations, read-out: hAMY R3 EC50

| Compound | EC50 [1, 4] [nM] | Solubility, Acetate buffer pH 4 [2] | Solubility, Acetate buffer pH 5 [2] | Solubility, Histidine buffer pH 6 [2] | Solubility, Histidine buffer pH 7 [2] | Solubility, Phosphate buffer pH 6 [2] | Solubility, Phosphate buffer pH 7 [2] | Solubility, Phosphate buffer pH 7.5 [2] | EC50 [3, 5] [nM] | EC50 [1] [nM] | EC50 [3] [nM] |
| --- | --- | --- | --- | --- | --- | --- | --- | --- | --- | --- | --- |
| CC[C@H](C)[C@@H](C(=O)N[C@@H](CC(C)C)C(=O)N[C@@H](CO)C(=O)N[C@@H](CO)C(=O)N[C@H](C(=O)N[C@@H](CCC(=O)O)C(=O)N[C@H](C(=O)NCC(=O)N[C@@H](CO)C(=O)N[C@@H](CCC(=O)O)C(=O)N[C@H](C(=O)N1CCC[C@H]1C(N)=O)[C@@H](C)O)C(C)C)[C@@H](C)O)N(C)C(=O)[C@H](C)NC(=O)CN(C)C(=O)[C@H](Cc1ccccc1)NC(=O)[C@H](CO)NC(=O)[C@H](CO)NC(=O)[C@H](CO)NC(=O)[C@H](CO)NC(=O)[C@H](CCCNC(=N)N)NC(=O)[C@H](Cc1c[nH]cn1)NC(=O)[C@H](CC(C)C)NC(=O)[C@H](Cc1ccccc1)NC(=O)[C@H](CCC(=O)O)NC(=O)[C@H](C)NC(=O)[C@H](CC(C)C)NC(=O)[C@H](CCCNC(=N)N)NC(=O)[C@H](CCC(=O)O)NC(=O)[C@@H](NC(=O)[C@H](C)NC(=O)[C@@H]1CSSC[C@H](NC(=O)[C@H](CCCNC(=N)N)NC(=O)CC[C@H](NC(=O)CCCCCCCCCCCCCCCCCCC(=O)O)C(=O)O)C(=O)N[C@@H](CC(=O)O)C(=O)N[C@@H]([C@@H](C)O)C(=O)N[C@@H](C)C(=O)N[C@@H]([C@@H](C)O)C(=O)N1)[C@@H](C)O [Compound 137, [19CD]-isoGlu-RC()DTATC()ATERLAEFLHRSSSSF-Gly(Me)-A-Ile(Me)-LSSTEVGSETP-NH2] ({C20 diacid-γGlu}-RCDTATCATERLAEFLHRSSSSF[Sar]A[NMeI]LSSTEVGSETP-NH2; disulfide 2-7) | 0.24 | SS (SS indicates solubility ≥ 1mg/ml) | SS (SS indicates solubility ≥ 1mg/ml) | SS (SS indicates solubility ≥ 1mg/ml) | SS (SS indicates solubility ≥ 1mg/ml) | SS (SS indicates solubility ≥ 1mg/ml) | SS (SS indicates solubility ≥ 1mg/ml) | SS (SS indicates solubility ≥ 1mg/ml) | 0.86 |  |  |
| CC[C@H](C)[C@@H](C(=O)N[C@@H](CC(C)C)C(=O)N[C@@H](CO)C(=O)N[C@@H](CO)C(=O)N[C@H](C(=O)N[C@@H](CCC(=O)O)C(=O)N[C@H](C(=O)NCC(=O)N[C@@H](CO)C(=O)N[C@@H](CCC(=O)O)C(=O)N[C@H](C(=O)N1CCC[C@H]1C(N)=O)[C@@H](C)O)C(C)C)[C@@H](C)O)N(C)C(=O)[C@H](C)NC(=O)CN(C)C(=O)[C@H](Cc1ccccc1)NC(=O)[C@H](CO)NC(=O)[C@H](CO)NC(=O)[C@H](CO)NC(=O)[C@H](CO)NC(=O)[C@H](CCCNC(=N)N)NC(=O)[C@H](Cc1c[nH]cn1)NC(=O)[C@H](CC(C)C)NC(=O)[C@H](Cc1ccccc1)NC(=O)[C@H](CCC(=O)O)NC(=O)[C@H](C)NC(=O)[C@H](CC(C)C)NC(=O)[C@H](CCCNC(=N)N)NC(=O)[C@H](CCC(N)=O)NC(=O)[C@@H](NC(=O)[C@H](C)NC(=O)[C@@H]1CSSC[C@H](NC(=O)[C@H](CCCNC(=N)N)NC(=O)CC[C@H](NC(=O)CCCCCCCCCCCCCCCCCCC(=O)O)C(=O)O)C(=O)N[C@@H](CO)C(=O)N[C@@H]([C@@H](C)O)C(=O)N[C@@H](C)C(=O)N[C@@H]([C@@H](C)O)C(=O)N1)[C@@H](C)O [Compound 126, [19CD]-isoGlu-RC()STATC()ATQRLAEFLHRSSSSF-Gly(Me)-A-Ile(Me)-LSSTEVGSETP-NH2] ({C20 diacid-γGlu}-RCSTATCATQRLAEFLHRSSSSF[Sar]A[NMeI]LSSTEVGSETP-NH2; disulfide 2-7) |  | SS (SS indicates solubility ≥ 1mg/ml) | SS (SS indicates solubility ≥ 1mg/ml) | SS (SS indicates solubility ≥ 1mg/ml) | SS (SS indicates solubility ≥ 1mg/ml) | SS (SS indicates solubility ≥ 1mg/ml) | SS (SS indicates solubility ≥ 1mg/ml) | SS (SS indicates solubility ≥ 1mg/ml) | 0.28 | 0.21 |  |
| CC[C@H](C)[C@@H](C(=O)N[C@@H](CC(C)C)C(=O)N[C@@H](CO)C(=O)N[C@@H](CO)C(=O)N[C@H](C(=O)N[C@@H](CCC(=O)O)C(=O)N[C@H](C(=O)NCC(=O)N[C@@H](CO)C(=O)N[C@@H](CCC(=O)O)C(=O)N[C@H](C(=O)N1CCC[C@H]1C(N)=O)[C@@H](C)O)C(C)C)[C@@H](C)O)N(C)C(=O)[C@H](C)NC(=O)CN(C)C(=O)[C@H](Cc1ccccc1)NC(=O)[C@H](CO)NC(=O)[C@H](CO)NC(=O)[C@H](CO)NC(=O)[C@H](CO)NC(=O)[C@H](CCCNC(=N)N)NC(=O)[C@H](Cc1c[nH]cn1)NC(=O)[C@H](CC(C)C)NC(=O)[C@H](Cc1ccccc1)NC(=O)[C@H](CCC(=O)O)NC(=O)[C@H](C)NC(=O)[C@H](CC(C)C)NC(=O)[C@H](CCCNC(=N)N)NC(=O)[C@H](CO)NC(=O)[C@@H](NC(=O)[C@H](C)NC(=O)[C@@H]1CSSC[C@H](NC(=O)[C@H](CCCNC(=N)N)NC(=O)CC[C@H](NC(=O)CCCCCCCCCCCCCCCCCCC(=O)O)C(=O)O)C(=O)NCC(=O)N[C@@H]([C@@H](C)O)C(=O)N[C@@H](C)C(=O)N[C@@H]([C@@H](C)O)C(=O)N1)[C@@H](C)O [Compound 141, [19CD]-isoGlu-RC()GTATC()ATSRLAEFLHRSSSSF-Gly(Me)-A-Ile(Me)-LSSTEVGSETP-NH2] ({C20 diacid-γGlu}-RCGTATCATSRLAEFLHRSSSSF[Sar]A[NMeI]LSSTEVGSETP-NH2; disulfide 2-7) | 0.11 | SS (SS indicates solubility ≥ 1mg/ml) | SS (SS indicates solubility ≥ 1mg/ml) | SS (SS indicates solubility ≥ 1mg/ml) | SS (SS indicates solubility ≥ 1mg/ml) | SS (SS indicates solubility ≥ 1mg/ml) | SS (SS indicates solubility ≥ 1mg/ml) | SS (SS indicates solubility ≥ 1mg/ml) | 0.13 |  |  |
| CC[C@H](C)[C@@H](C(=O)N[C@@H](CC(C)C)C(=O)N[C@@H](CO)C(=O)N[C@@H](CO)C(=O)N[C@H](C(=O)N[C@@H](CC(N)=O)C(=O)N[C@H](C(=O)NCC(=O)N[C@@H](CO)C(=O)N[C@@H](CC(N)=O)C(=O)N[C@H](C(=O)N1C[C@H](c2ccccc2)C[C@H]1C(N)=O)[C@@H](C)O)C(C)C)[C@@H](C)O)N(C)C(=O)[C@H](C)NC(=O)CN(C)C(=O)[C@H](Cc1ccccc1)NC(=O)[C@H](CC(N)=O)NC(=O)[C@H](CC(N)=O)NC(=O)[C@H](CO)NC(=O)[C@H](CO)NC(=O)[C@H](CCCNC(=N)N)NC(=O)[C@H](Cc1c[nH]cn1)NC(=O)[C@H](CC(C)C)NC(=O)[C@H](Cc1ccccc1)NC(=O)[C@H](CCC(=O)O)NC(=O)[C@H](C)NC(=O)[C@H](CC(C)C)NC(=O)[C@H](CCCNC(=N)N)NC(=O)[C@H](CCC(N)=O)NC(=O)[C@@H](NC(=O)[C@H](C)NC(=O)[C@@H]1CSSC[C@H](NC(=O)[C@H](CCCNC(=N)N)NC(=O)CC[C@H](NC(=O)CCCCCCCCCCCCCCCCCCC(=O)O)C(=O)O)C(=O)N[C@@H](CC(N)=O)C(=O)N[C@@H]([C@@H](C)O)C(=O)N[C@@H](C)C(=O)N[C@@H]([C@@H](C)O)C(=O)N1)[C@@H](C)O [Compound 112, [19CD]-isoGlu-RC()NTATC()ATQRLAEFLHRSSNNF-Gly(Me)-A-Ile(Me)-LSSTNVGSNT-Php-NH2] ({C20 diacid-γGlu}-RCNTATCATQRLAEFLHRSSNNF[Sar]A[NMeI]LSSTNVGSNT[Pro(trans-4-Ph)]-NH2; disulfide 2-7) |  | SS (SS indicates solubility ≥ 1mg/ml) | SS (SS indicates solubility ≥ 1mg/ml) | SS (SS indicates solubility ≥ 1mg/ml) | II (II indicates solubility ≤ 1 mg/ml) | II (II indicates solubility ≤ 1 mg/ml) | SS (SS indicates solubility ≥ 1mg/ml) | II (II indicates solubility ≤ 1 mg/ml) |  | 0.16 | 0.15 |

— patent EP3046573B1, “AMYLIN ANALOGUES” (Zealand Pharma A/S, priority 2013, dated 2015)
